From patent US8895585B2, “Nicotinamide derivative or salt thereof” (FUJIFILM Corporation, priority 2010, dated 2014)
pIC50: −log10 of the molar value. Where two headings read alike, the source gives them in different places.

Key:
[1] = biological target: T1, glutathione S-transferase (GST)-fused full-length human Syk protein (Homo sapiens, UniProt P43405); experiment: Syk enzyme assay; format: biochemical; conditions: Syk enzyme assay, Test Example 1; read-out: IC50 of Syk-inhibitory activity
T1 construct: (GST)-fused full-length human Syk protein; GST (glutathione S-transferase); purchased Carna Biosciences
How it was run: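 Baculovirus-expressed enzyme (1.2 ng) was preincubated with compound in HEPES pH 7.0/MgCl2/DTT buffer, 2 min shaking then 13 min at room temperature. Biotin-EDPDYEWPSA-NH2 (0.4 μM final) and ATP (27 μM final) were added for 40 min at room temperature. EDTA stop, streptavidin-XL/PT66-K TR-FRET at 615/665 nm gave IC50.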

THP-1 cells = experiment: TNFα generation assay; format: cell-based, human; conditions: Table 22, read-out: IC50 in TNFα generation assay
How it was run: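 Secreted TNFα in supernatant quantified by ELISA or AlphaLISA after 7 h culture on human IgG-coated wells (10 μg/ml coating). Cells were IFN-γ-differentiated THP-1 (10 ng/ml, 2 days), exposed to compound for 30 min at room temperature before plating.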

[2] = Homo sapiens, THP-1, THP-1 cells

CC[C@H](N)[C@@H](C)Nc1nc(Nc2ccc3ncccc3c2)c(C(N)=O)cc1F [Example 006-198, 6-(((2R,3S)-3-aminopentan-2-yl)amino)-5-fluoro-2-((quinolin-6-yl)amino)nicotinamide]
pIC50 [1]: > 8.00
pIC50 (THP-1 cells; [2]): 6.89 to 7.19

CC[C@@H](Nc1nc(Nc2cnc(C)c(C3CC3)c2)c(C(N)=O)cc1F)[C@H](C)N [Example 006-272, 6-(((2S,3R)-2-aminopentan-3-yl)amino)-2-((5-cyclopropyl-6-methylpyridin-3-yl)amino)-5-fluoronicotinamide]
pIC50 [1]: 7.30 to 8.00
pIC50 (THP-1 cells; [2]): 6.89 to 7.19

6-(((2R,3S)-3-aminobutan-2-yl)amino)-2- (3,5-dimethoxyphenyl)amino)-5- fluoronicotinamide 6-(((2S,3R)-3-aminobutan-2-yl)amino)-2- (3,5-dimethoxyphenyl)amino)-5- fluoronicotinamide [Example 006-107]
pIC50 [1]: > 8.00
pIC50 (THP-1 cells; THP-1 cells): > 7.19

CC(C)Oc1cc(Nc2nc(NC3CCCCC3N)c(F)cc2C(N)=O)ccn1 (stereo not drawn) [Example 002-055]
pIC50 [1]: > 8.00
pIC50 (THP-1 cells; [2]): 6.70 to 6.89

C[C@H](N)[C@H](Nc1nc(Nc2ccc3c(cnn3C)c2)c(C(N)=O)cc1F)C1CC1 [Example 006-369, 6-(((1R,2S)-2-amino-1-cyclopropylpropyl)amino)-5-fluoro-2-((1-methyl-1H-indazol-5-yl)amino)nicotinamide]
pIC50 [1]: > 8.00
pIC50 (THP-1 cells; [2]): > 7.19

C[C@H](N)[C@@H](C)Nc1nc(Nc2ccc3ncccc3c2)c(C(N)=O)cc1F (racemic) [Example 39-1, 6-(((2R,3S)-3-aminobutan-2-yl)amino)-5-fluoro-2-((quinolin-6-yl)amino)nicotinamide 6-(((2S,3R)-3-aminobutan-2-yl)amino)-5-fluoro-2-((quinolin-6-yl)amino)nicotinamide]
pIC50 [1]: > 8.00
pIC50 (THP-1 cells; [2]): > 7.19

NC(=O)c1cc(F)c(NC2CCCCC2N)nc1Nc1ccnc(-c2ccc3cnccc3c2)c1 (stereo not drawn) [Example 002-193]
pIC50 [1]: > 8.00
pIC50 (THP-1 cells; [2]): 6.70 to 6.89

Cc1cc(Nc2nc(N[C@@H]3CCCC[C@@H]3N)c(F)cc2C(N)=O)cnc1-n1nccn1 [Example 006-500, 6-(((1R,2S)-2-aminocyclohexyl)amino)-5-fluoro-2-((5-methyl-6-(2H-1,2,3-triazol-2-yl)pyridin-3-yl)amino)nicotinamide]
pIC50 [1]: 7.30 to 8.00
pIC50 (THP-1 cells; [2]): 6.89 to 7.19

Cc1nc2ccc(Nc3nc(N[C@H](C)[C@H](C)N)c(F)cc3C(N)=O)cc2nc1C (racemic) [Example 006-185, 6-(((2R,3S)-3-aminobutan-2-yl)amino)-2-((2,3-dimethylquinoxalin-6-yl)amino)-5-fluoronicotinamide 6-(((2S,3R)-3-aminobutan-2-yl)amino)-2-((2,3-dimethylquinoxalin-6-yl)amino)-5-fluoronicotinamide]
pIC50 [1]: 7.30 to 8.00
pIC50 (THP-1 cells; [2]): 6.89 to 7.19

CC(C)C[C@H](CN)Nc1nc(Nc2cncc(-n3cccn3)c2)c(C(N)=O)cc1F [Example 006-170, (R)-2-((5-(1H-pyrazol-1-yl)pyridin-3-yl)amino)-6-((1-amino-4-methylpentan-2-yl)amino)-5-fluoronicotinamide]
pIC50 [1]: > 8.00
pIC50 (THP-1 cells; [2]): 6.89 to 7.19

NC(=O)c1cc(F)c(N[C@@H]2CCCC[C@@H]2N)nc1Nc1ccc2c(c1)c(F)nn2C1CC1 [Example 006-475, 6-(((1R,2S)-2-aminocyclohexyl)amino)-2-((1-cyclopropyl-3-fluoro-1H-indazol-5-yl)amino)-5-fluoronicotinamide]
pIC50 [1]: > 8.00
pIC50 (THP-1 cells; [2]): 6.70 to 6.89

COCCn1ncc2cc(Nc3nc(N[C@@H]4CCCC[C@@H]4N)c(F)cc3C(N)=O)ccc21 (relative stereo) [Example 004-091, 6-(cis-2-aminocyclohexylamino)-5-fluoro-2-((1-(2-methoxyethyl)-1H-indazol-5-yl)amino)-nicotinamide]
pIC50 [1]: > 8.00
pIC50 (THP-1 cells; [2]): 6.89 to 7.19

Cc1nn(C)c2ccc(Nc3nc(N[C@H](CC4CC4)[C@H](C)N)c(F)cc3C(N)=O)cc12 [Example 006-442, 6-(((2R,3S)-3-amino-1-cyclopropylbutan-2-yl)amino)-2-((1,3-dimethyl-1H-indazol-5-yl)amino)-5-fluoronicotinamide]
pIC50 [1]: > 8.00
pIC50 (THP-1 cells; [2]): > 7.19

COc1cc(Nc2nc(N[C@@H]3CCOC[C@@H]3N)c(F)cc2C(N)=O)ccn1 [Example 006-531, 6-(((3R,4R)-3-aminotrahydro-2H-pyran-4-yl)amino)-5-fluoro-2-((2-methoxypyridin-4-yl)amino)nicotinamide]
pIC50 [1]: > 8.00
pIC50 (THP-1 cells; [2]): 6.89 to 7.19

Cc1cc(Nc2nc(N[C@@H]3CCCC[C@@H]3N)c(F)cc2C(N)=O)cnc1-n1ccnn1 [Example 006-501, 6-(((1R,2S)-2-aminocyclohexyl)amino)-5-fluoro-2-((5-methyl-6-(1H-1,2,3-triazol-1-yl)pyridin-3-yl)amino)nicotinamide]
pIC50 [1]: 7.30 to 8.00
pIC50 (THP-1 cells; [2]): 6.70 to 6.89

C[C@H](N)[C@@H](CC1CC1)Nc1nc(Nc2cncc(F)c2)c(C(N)=O)cc1F [Example 006-357, 6-(((2R,3S)-3-amino-1-cyclopropylbutan-2-yl)amino)-5-fluoro-2-((5-fluoropyridin-3-yl)amino)nicotinamide]
pIC50 [1]: 7.30 to 8.00
pIC50 (THP-1 cells; [2]): 6.89 to 7.19

C=C(C)C[C@@H](Nc1nc(Nc2ccc3ncccc3c2)c(C(N)=O)cc1F)[C@H](C)N [Example 006-396, 6-(((2S,3R)-2-amino-5-methylhex-5-en-3-yl)amino)-5-fluoro-2-(quinolin-6-ylamino)nicotinamide]
pIC50 [1]: > 8.00
pIC50 (THP-1 cells; [2]): 6.89 to 7.19

Cc1nn(CC(F)F)c2ccc(Nc3nc(N[C@H](CC(C)C)[C@H](C)N)c(F)cc3C(N)=O)cc12 [Example 006-522, 6-(((2S,3R)-2-amino-5-methylhexan-3-yl)amino)-2-((1-(2,2-difluoroethyl)-3-methyl-1H-indazol-5-yl)amino)-5-fluoronicotinamide]
pIC50 [1]: > 8.00
pIC50 (THP-1 cells; [2]): > 7.19

C[C@@H](N)[C@@H](C)Nc1nc(Nc2ccc3ncccc3c2)c(C(N)=O)cc1F [Example 006-224, 6-(((2R,3R)-3-aminobutan-2-yl)amino)-5-fluoro-2-((quinolin-6-yl)amino)nicotinamide]
pIC50 [1]: 7.30 to 8.00
pIC50 (THP-1 cells; [2]): > 7.19

NC(=O)c1cc(F)c(NC2CCCCC2N)nc1Nc1cncc(-c2ccc([N+](=O)[O-])cc2)c1 (stereo not drawn) [Example 002-172]
pIC50 [1]: 7.30 to 8.00
pIC50 (THP-1 cells; [2]): 6.70 to 6.89

COc1cc(Nc2nc(N[C@H](C)[C@H](C)N)c(F)cc2C(N)=O)cc(OC)n1 (racemic) [Example 006-112, 6-(((2R,3S)-3-aminobutan-2-yl)amino)-2-((2,6-dimethoxypyridin-4-yl)amino)-5-fluoronicotinamide 6-(((2S,3R)-3-aminobutan-2-yl)amino)-2-((2,6-dimethoxypyridin-4-yl)amino)-5-fluoronicotinamide]
pIC50 [1]: > 8.00
pIC50 (THP-1 cells; [2]): 6.89 to 7.19
